# Source: patent publication US7994321B2, “Substituted thieno[3,2-C]pyridine-7-carboxylic acid derivatives” (Hoffmann-La Roche Inc., priority 2006, dated 2011)
# Molecular target: T1, Human recombinant EE-tagged PDGFRβ (Homo sapiens, UniProt P09619)
# T1 construct: made in house; host or cells: Sf9 cells
# Experiment: PDGFRβ IMAP Kinase Assay (fluorescence polarization)
# Type: biochemical
# Details: Kinase Enzyme Inhibition Assay; IMAP FP; FITC-labeled peptide substrate, ATP; 60 minutes at room temperature
# Text: The assay uses IMAP Fluorescence polarization (FP) assay platform based on the high affinity binding of phosphate by immobilized metal coordination complexes. The substrate used in this assay is a Fitc labeled peptide: FITC-ALTSNQEYLDLSMPL. Upon substrate peptide's phosphorylation, the IMAP binding reagent complexes with phosphate groups on phosphopeptides generated in the PDGFRβ reaction, which causes a change in the rate of the molecular motion of the peptide, and results in an increase in the FP values.
# • Enzyme: Human recombinant EE-tagged PDGFRβ, expressed in Sf9 cells (stock concentration 74.5 μM, from Protein Biochemistry, RDT); store at −80° C. • Substrate: Synthesized Fitc labeled peptide: FITC-ALTSNQEYLDLSMPL; store at −20° C. • Positive Control Staurosporine (1 mM stock in DMSO, Calbiochem) • Robotic System Workstation: Tomtec Quadra • Reader: Acquest 384.1356 (Molecular Devices); FP reading method • Assay Plate: BD Falcon 30-μL 384 assay plate (Cat # 353972), and Costar 384 black plate (Cat # 3710) Assay Procedures: (1) Prepare Assay Buffer-MOPS Buffer: 20 mM MOPS (Teknova) pH 7.1, 5 mM sodium acetate, 6.25 mM MgCl2, 0.5 mM EDTA, 1 mM DTT, 0.04 mM NaVO4, 0.02% BSA. (2) Prepare Substrate Mix containing peptide (1 μM) and ATP (48.6 μM) in assay buffer. Add 8 μL of Substrate Mix in BD Falcon assay plates. (3) Prepare PDGFRβ (0.2 μM) in assay buffer. (4) Dilute compounds and positive control in DMSO (40 fold, 4-pt in series). Add 18 μL/well of assay buffer into 384 polypropylene compound plates containing 2 μL of compound solution in each well, mix and transfer 4 μl/well of diluted solution into the BD Falcon assay plates containing 8 μL of Substrate Mix (step 2) in each well. Then add 4 μl/well of PDGFRβ solution (step 3) in all wells except blank wells. Add 4 μl/well of assay buffer into blank wells. (5) Incubate at room temperature for 60 minutes. (6) Prepare 1:400 IMAP bead mix following the instruction given in the IMAP Bead Binding System Kit (Molecular Devices), and add 30 μl/well of IMAP bead mix in Costar 384 black plates. (7) Transfer 2 μl/well of reaction solution (step 4-5) into Costar 384 black plates containing 30 μl/well of bead mix (step 6). (8) Incubate at RT for 2 hours. (9) Read FP values at 485 nm and 530 nm on Acquest.
# Kinase Enzyme Inhibition Assay (IC50)
# T1 sequence (P09619 33-1106): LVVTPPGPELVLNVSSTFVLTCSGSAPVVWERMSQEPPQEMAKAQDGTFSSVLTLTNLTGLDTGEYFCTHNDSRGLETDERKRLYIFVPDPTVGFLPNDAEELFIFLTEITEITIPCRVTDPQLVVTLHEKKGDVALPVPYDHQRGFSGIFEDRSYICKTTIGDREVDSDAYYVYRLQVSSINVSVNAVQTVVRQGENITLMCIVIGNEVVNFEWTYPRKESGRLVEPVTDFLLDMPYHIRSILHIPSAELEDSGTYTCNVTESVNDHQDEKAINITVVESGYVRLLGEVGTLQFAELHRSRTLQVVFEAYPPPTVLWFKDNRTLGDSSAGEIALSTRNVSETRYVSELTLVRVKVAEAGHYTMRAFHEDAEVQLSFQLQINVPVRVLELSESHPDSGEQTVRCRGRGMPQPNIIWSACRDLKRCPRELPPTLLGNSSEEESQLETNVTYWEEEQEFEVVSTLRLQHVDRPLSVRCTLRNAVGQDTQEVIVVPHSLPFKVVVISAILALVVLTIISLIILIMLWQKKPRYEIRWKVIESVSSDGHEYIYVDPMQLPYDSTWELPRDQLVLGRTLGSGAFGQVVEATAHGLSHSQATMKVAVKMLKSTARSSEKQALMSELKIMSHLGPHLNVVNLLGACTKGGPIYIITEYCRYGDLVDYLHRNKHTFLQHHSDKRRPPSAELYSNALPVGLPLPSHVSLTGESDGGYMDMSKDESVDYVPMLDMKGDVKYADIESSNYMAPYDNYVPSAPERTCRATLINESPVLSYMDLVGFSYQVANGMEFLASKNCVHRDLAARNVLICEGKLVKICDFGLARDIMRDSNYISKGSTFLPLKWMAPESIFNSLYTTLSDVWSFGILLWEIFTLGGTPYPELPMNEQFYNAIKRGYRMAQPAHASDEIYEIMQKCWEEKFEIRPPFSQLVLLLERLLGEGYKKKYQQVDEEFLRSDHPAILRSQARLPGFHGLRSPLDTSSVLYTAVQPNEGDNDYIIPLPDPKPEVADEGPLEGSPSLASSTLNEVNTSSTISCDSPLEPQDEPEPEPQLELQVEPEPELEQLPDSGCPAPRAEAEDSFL
row,SMILES,IC50
1,"O=C(Nc1cccc(OCc2csc3c(C(=O)NCCO)cncc23)c1)c1ccccc1 [Example 7, 3-(3-Benzoylamino-phenoxymethyl)-thieno[3,2-c]pyridine-7-carboxylic acid (2-hydroxy-ethyl)-amide]",0.99 µM
2,"COc1cccc(C(=O)Nc2ccc(C)c(OCc3csc4c(C(=O)NCCO)cncc34)c2)c1 [Example 31, 3-[5-(3-Methoxy-benzoylamino)-2-methyl-phenoxymethyl]-thieno[3,2-c]pyridine-7-carboxylic acid (2-hydroxy-ethyl)-amide]",< 20 µM

# Other lines, results leading:
row,IC50,SMILES
1,0.34 µM,"CCOC(=O)c1cncc2c(COc3cccc(NC(=O)c4ccc(F)cc4)c3)csc12 [Example 8, 3-[3-(4-Fluoro-benzoylamino)-phenoxymethyl]-thieno[3,2-c]pyridine-7-carboxylic acid ethyl ester]"
2,0.44 µM,"CCOC(=O)c1cncc2c(COc3cccc(NC(=O)c4cccc(OC)c4)c3)csc12 [Example 13, 3-[3-(3-Methoxy-benzoylamino)-phenoxymethyl]-thieno[3,2-c]pyridine-7-carboxylic acid ethyl ester]"
3,0.113 µM,"O=C(Nc1cccc(OCc2csc3c(C(=O)NCCO)cncc23)c1)c1cccc(Cl)c1 [Example 16, 3-[3-(3-Chloro-benzoylamino)-phenoxymethyl]-thieno[3,2-c]pyridine-7-carboxylic acid (2-hydroxy-ethyl)-amide]"
